Read-outs that look alike come from different tables or passages of the source.
How the values were obtained:
Type in all cases: cell-based
[1] = tested on: CCRF-CEM; test: Differential nuclear staining (DNS) cytotoxicity assay; conditions: Homo sapiens, CCRF-CEM, 48 h
From the text: (§1) All cell lines were obtained commercially from ATCC (American Type Culture Collection). Several cancer and non-cancerous cell lines were used for this analysis. […] Solid tumor cancer cell lines included MDA-MB-231 (Adenocarcinoma; HTB-26) cultured in DMEM medium, HT-29 (Colorectal Adenocarcinoma; HTB-38) cultured in McCoy’s 5A medium, and COLO 205 (Colorectal Adenocarcinoma; CCL-222) cultured in RPMI-1640 medium. Non-cancerous cell lines included Hs27 (No disease, foreskin; CRL-1634) cultured in DMEM medium and MCF-10A (Fibrocystic Disease; CRL-10317) cultured in DMEM/F12 medium supplemented with 20 ng/ml epidermal growth factor, 0.5 μg/ml hydrocortisone, and 10 μg/ml insulin. Additionally, all media used for cell culture was supplemented with 10% heat-inactivated fetal bovine serum (FBS), and a mixture of 25 μg/ml amphotericin B, 1,000 U/ml penicillin, and 1,000 μg/ml streptomycin. […] All cell lines were grown in an incubator supplemented with 5% CO2 at 37 °C.
(§2) Cytotoxic activity was evaluated through the DNS assay [17, 18]. This assay involves labeling live and dead cells with two nucleic acid intercalators, Hoechst 33342 and propidium iodide (PI). Hoechst 33342 stains all cells (healthy and dead), but PI stains only dead or dying cells with a compromised cell membrane [17, 18]. For the experiment, each cell line was plated at a density of 10,000 cells per well (96-well plate) in 100 μl media and placed in the incubator overnight under cell culture conditions. Cells were then treated with varying concentrations of the compound of interest for 48 h. Two hours before incubation elapsed, 10 μl of a dye mixture consisting of phosphate-buffered saline (PBS), Hoechst 33342 (1 μg/ml final; Invitrogen, H1399), and PI (1 μg/ml final; Invitrogen, P1304MP) was added to each well. […] For quantitative analysis, images were segmented through the IN Cell Analyzer Workstation 3.2 software (GE Healthcare). […] Each compound concentration and each control were assessed in triplicate. […] SCI was calculated using the following equation: CC50 of the non-cancer cell line/CC50 of the cancer cell line [20].

[2] = tested on: COLO 205; test: as above; conditions: Homo sapiens, COLO 205, 48 h
From the text: as §1, §2

[3] = tested on: HL-60; test: as above; conditions: for CC50: Homo sapiens
Method: (§3) All cell lines were obtained commercially from ATCC (American Type Culture Collection). Several cancer and non-cancerous cell lines were used for this analysis. […] Non-cancerous cell lines included Hs27 (No disease, foreskin; CRL-1634) cultured in DMEM medium and MCF-10A (Fibrocystic Disease; CRL-10317) cultured in DMEM/F12 medium supplemented with 20 ng/ml epidermal growth factor, 0.5 μg/ml hydrocortisone, and 10 μg/ml insulin. Additionally, all media used for cell culture was supplemented with 10% heat-inactivated fetal bovine serum (FBS), and a mixture of 25 μg/ml amphotericin B, 1,000 U/ml penicillin, and 1,000 μg/ml streptomycin. The HL-60 cell line was supplemented with 20% FBS and the same antibiotic mixture described. All cell lines were grown in an incubator supplemented with 5% CO2 at 37 °C.
(§4) Cytotoxic activity was evaluated through the DNS assay [17, 18]. This assay involves labeling live and dead cells with two nucleic acid intercalators, Hoechst 33342 and propidium iodide (PI). Hoechst 33342 stains all cells (healthy and dead), but PI stains only dead or dying cells with a compromised cell membrane [17, 18]. For the experiment, each cell line was plated at a density of 10,000 cells per well (96-well plate) in 100 μl media and placed in the incubator overnight under cell culture conditions. Cells were then treated with varying concentrations of the compound of interest for 48 h. Two hours before incubation elapsed, 10 μl of a dye mixture consisting of phosphate-buffered saline (PBS), Hoechst 33342 (1 μg/ml final; Invitrogen, H1399), and PI (1 μg/ml final; Invitrogen, P1304MP) was added to each well. The IN Cell 2000 analyzer, a high-content analyzer (HCA), was used to image the plates (GE Healthcare). For quantitative analysis, images were segmented through the IN Cell Analyzer Workstation 3.2 software (GE Healthcare). […] Each compound concentration and each control were assessed in triplicate.
(§5) For the experiments conducted, the concentrations used correspond to either CC50 or CC50 × 2 in the specified cell line. […] Therefore, we used a CC10 and a CC30 concentration.

[4] = tested on: HT-29; test: as above; conditions: Homo sapiens, HT-29, 48 h
From the text: as §1, §2

[5] = tested on: Jurkat; test: as above; conditions: Homo sapiens, Jurkat, 48 h
From the text: (§6) All cell lines were obtained commercially from ATCC (American Type Culture Collection). Several cancer and non-cancerous cell lines were used for this analysis. […] Solid tumor cancer cell lines included MDA-MB-231 (Adenocarcinoma; HTB-26) cultured in DMEM medium, HT-29 (Colorectal Adenocarcinoma; HTB-38) cultured in McCoy’s 5A medium, and COLO 205 (Colorectal Adenocarcinoma; CCL-222) cultured in RPMI-1640 medium. Non-cancerous cell lines included Hs27 (No disease, foreskin; CRL-1634) cultured in DMEM medium and MCF-10A (Fibrocystic Disease; CRL-10317) cultured in DMEM/F12 medium supplemented with 20 ng/ml epidermal growth factor, 0.5 μg/ml hydrocortisone, and 10 μg/ml insulin. Additionally, all media used for cell culture was supplemented with 10% heat-inactivated fetal bovine serum (FBS), and a mixture of 25 μg/ml amphotericin B, 1,000 U/ml penicillin, and 1,000 μg/ml streptomycin. The HL-60 cell line was supplemented with 20% FBS and the same antibiotic mixture described. All cell lines were grown in an incubator supplemented with 5% CO2 at 37 °C.
(§7) Cytotoxic activity was evaluated through the DNS assay [17, 18]. This assay involves labeling live and dead cells with two nucleic acid intercalators, Hoechst 33342 and propidium iodide (PI). Hoechst 33342 stains all cells (healthy and dead), but PI stains only dead or dying cells with a compromised cell membrane [17, 18]. For the experiment, each cell line was plated at a density of 10,000 cells per well (96-well plate) in 100 μl media and placed in the incubator overnight under cell culture conditions. Cells were then treated with varying concentrations of the compound of interest for 48 h. […] For quantitative analysis, images were segmented through the IN Cell Analyzer Workstation 3.2 software (GE Healthcare). […] Each compound concentration and each control were assessed in triplicate. […] SCI was calculated using the following equation: CC50 of the non-cancer cell line/CC50 of the cancer cell line [20].

[6] = tested on: K562; test: as above; conditions: Homo sapiens, K562, 48 h
From the text: as §6, §7

[7] = tested on: KCL22; test: as above; conditions: Homo sapiens
From the text: as §6, §7

[8] = tested on: MDA-MB-231; test: as above; conditions: Homo sapiens, MDA-MB-231, 48 h
From the text: as §1, §2

[9] = tested on: Ramos; test: as above; conditions: Homo sapiens, Ramos, 48 h
From the text: as §1, §2

[10] = tested on: nine tumorigenic cell lines; test: DNS assay, summary over the cancer cell line panel; conditions: for CC50: 48 h, read-out: average CC50 towards the nine tumorigenic cell lines
Method: Several cancer and non-cancerous cell lines were used for this analysis. […] Additionally, all media used for cell culture was supplemented with 10% heat-inactivated fetal bovine serum (FBS), and a mixture of 25 μg/ml amphotericin B, 1,000 U/ml penicillin, and 1,000 μg/ml streptomycin. […] All cell lines were grown in an incubator supplemented with 5% CO2 at 37 °C.
Cytotoxic activity was evaluated through the DNS assay [17, 18]. […] For the experiment, each cell line was plated at a density of 10,000 cells per well (96-well plate) in 100 μl media and placed in the incubator overnight under cell culture conditions. Cells were then treated with varying concentrations of the compound of interest for 48 h. […] The IN Cell 2000 analyzer, a high-content analyzer (HCA), was used to image the plates (GE Healthcare). For quantitative analysis, images were segmented through the IN Cell Analyzer Workstation 3.2 software (GE Healthcare). […] Each compound concentration and each control were assessed in triplicate.

[11] = Differential nuclear staining (DNS) cytotoxicity assay; conditions: human, Hs27 cells (non-cancerous) versus CCRF-CEM cells (cancer); CC50 Hs27 / CC50 CCRF-CEM; read-out: SCI (Selective Cytotoxicity Index)
From the text: as §1, §2

[12] = as above; conditions: human, Hs27 cells (non-cancerous) versus COLO 205 cells (cancer); CC50 Hs27 / CC50 COLO 205; read-out: SCI (Selective Cytotoxicity Index)
From the text: as §1, §2

[13] = as above; conditions: human, Hs27 cells (non-cancerous) versus HL-60 cells (cancer); CC50 Hs27 / CC50 HL-60; read-out: SCI (Selective Cytotoxicity Index)
Method: as §3, §4, §5

[14] = as above; conditions: human, Hs27 non-cancerous cells
From the text: (§8) All cell lines were obtained commercially from ATCC (American Type Culture Collection). Several cancer and non-cancerous cell lines were used for this analysis. […] Solid tumor cancer cell lines included MDA-MB-231 (Adenocarcinoma; HTB-26) cultured in DMEM medium, HT-29 (Colorectal Adenocarcinoma; HTB-38) cultured in McCoy’s 5A medium, and COLO 205 (Colorectal Adenocarcinoma; CCL-222) cultured in RPMI-1640 medium. Non-cancerous cell lines included Hs27 (No disease, foreskin; CRL-1634) cultured in DMEM medium and MCF-10A (Fibrocystic Disease; CRL-10317) cultured in DMEM/F12 medium supplemented with 20 ng/ml epidermal growth factor, 0.5 μg/ml hydrocortisone, and 10 μg/ml insulin. Additionally, all media used for cell culture was supplemented with 10% heat-inactivated fetal bovine serum (FBS), and a mixture of 25 μg/ml amphotericin B, 1,000 U/ml penicillin, and 1,000 μg/ml streptomycin. The HL-60 cell line was supplemented with 20% FBS and the same antibiotic mixture described. […]
(§9) Cytotoxic activity was evaluated through the DNS assay [17, 18]. […] For quantitative analysis, images were segmented through the IN Cell Analyzer Workstation 3.2 software (GE Healthcare). […] Each compound concentration and each control were assessed in triplicate. […] SCI was calculated using the following equation: CC50 of the non-cancer cell line/CC50 of the cancer cell line [20].

[15] = as above; conditions: human, Hs27 cells (non-cancerous) versus HT-29 cells (cancer); CC50 Hs27 / CC50 HT-29; read-out: SCI (Selective Cytotoxicity Index)
From the text: as §1, §2

[16] = as above; conditions: human, Hs27 cells (non-cancerous) versus Jurkat cells (cancer); CC50 Hs27 / CC50 Jurkat; read-out: SCI (Selective Cytotoxicity Index)
From the text: as §6, §7

[17] = as above; conditions: human, Hs27 cells (non-cancerous) versus K562 cells (cancer); CC50 Hs27 / CC50 K562; read-out: SCI (Selective Cytotoxicity Index)
From the text: as §6, §7

[18] = as above; conditions: human, Hs27 cells (non-cancerous) versus KCL22 cells (cancer); CC50 Hs27 / CC50 KCL22; read-out: SCI (Selective Cytotoxicity Index)
From the text: as §6, §7

[19] = as above; conditions: human, MCF-10A non-cancerous cells
From the text: as §6
Cytotoxic activity was evaluated through the DNS assay [17, 18]. […] For quantitative analysis, images were segmented through the IN Cell Analyzer Workstation 3.2 software (GE Healthcare). […] Each compound concentration and each control were assessed in triplicate.

[20] = as above; conditions: human; CC50 MCF-10A / CC50 MDA-MB-231; read-out: SCI (Selective Cytotoxicity Index)
From the text: as §1, §2

[21] = as above; conditions: human, Hs27 cells (non-cancerous) versus Ramos cells (cancer); CC50 Hs27 / CC50 Ramos; read-out: SCI (Selective Cytotoxicity Index)
From the text: as §1, §2

[22] = DNS assay, summary over the non-cancerous cell lines; conditions: human, Hs27 and MCF-10A non-cancerous cells, mean of two non-cancerous cell lines, read-out: average CC50 towards Hs27 and MCF-10A
From the text: as §8, §9

[23] = tested on: HL-60 cells; test: Annexin V-FITC assay (phosphatidylserine externalization); conditions: HL-60, 24 h, CC50 concentration (P3 […], P4 2 μM, P5 2 μM)
Method: The annexin V-FITC assay was used to evaluate the induction of apoptosis (Beckman Coulter; IM3546) [21]. HL-60 cells were seeded at a density of 100,000 cells in 1 ml complete medium. Cells were treated with the three compounds of interest for 24 h. […] Controls used were a vehicle control (0.1% v/v DMSO), an apoptosis-inducing positive control (1 mM H2O2), and an untreated cell negative control. Following treatment, cells were collected and stained with both PI and annexin V-FITC according to the manufacturer’s instructions (Beckman Coulter; IM3546). Samples were immediately read by flow cytometry (Gallios; Beckman Coulter). Data analysis was accomplished with Kaluza software (Kaluza Analysis Software; Beckman Coulter).

[24] = tested on: caspase-3 activation in HL-60 cells; test: Caspase-3 assay (NucView 488); conditions: HL-60, 8 h; concentration not given
[25] = tested on: HL-60 cells; test: Mitochondrial membrane potential (ΔΨm) polychromatic assay (JC-1); conditions: HL-60, 5 h, 4 μM
Method: The cationic JC-1 (5′,6,6′-tetrachloro-1,1′,3,3′-tetraethylben zimidazolylcarbocyanine iodide) dye can be used to monitor mitochondrial membrane potential (Invitrogen; M34152). A red signal (JC-1 aggregates) indicates an intact polarized mitochondrial membrane, while a green signal (JC-1 monomers) indicates a depolarized mitochondrial membrane. […] A vehicle, positive, and negative control (as previously described) were included as well. Following incubation, cells were collected and stained per the manufacturer’s instructions with a final concentration of 2 μM JC-1 dye. Samples were then examined utilizing flow cytometry (Gallios; Beckman Coulter). Analysis of the subsequent data was completed using Kaluza software (Kaluza Analysis Software; Beckman Coulter).

[26] = tested on: HL-60 cells; test: Reactive oxygen species (ROS) assay (carboxy-H2DCFDA); conditions: HL-60, 18 h
Method: Reactive oxygen species (ROS) generation can be quantified using the 6-carboxy-2',7'-dichlorodihydrofluorescein diacetate (carboxy-H2DCFDA) dye (Invitrogen; Molecular Probes, C400) [19, 22]. This non-fluorescent dye shifts to a green fluorescent form as oxidation, induced by ROS, occurs within the cell. Therefore, a green fluorescent signal, corresponding to the oxidized form of carboxy-H2DCFDA, indicates ROS generation. Cells (HL-60) were plated overnight at a density of 100,000 cells in 1 ml. […] Samples were collected, centrifuged at 262g for 5 min, and re-suspended in 1 ml PBS to remove the complete medium. Then, cells were loaded with a final concentration of 10 μM carboxy-H2DCFDA dye for 45 min at 37 °C. Following incubation with dye, cells were centrifuged at 262g for 5 min and re-suspended in 500 μl PBS. Then, samples were processed using flow cytometry (Gallios; Beckman Coulter). Data analysis was completed with the Kaluza software (Kaluza Analysis Software; Beckman Coulter). Controls used were the same as mentioned before (0.1% v/v DMSO, 1 mM H2O2, and untreated cells) with an additional unstained (not loaded with dye) control to observe the normal population of cells.

[27] = tested on: HL-60 cells; test: Cell cycle analysis with NIM-DAPI; conditions: HL-60, 72 h
Method: Controls included were a vehicle (0.1% v/v DMSO), positive (1 mM H2O2), and negative (untreated cells) control. Subsequently, cells were collected in flow cytometry tubes and centrifuged at 262g for 5 min. Then, the supernatant was removed, and the cell pellet was re-suspended in a mixture of 100 μl of PBS and 200 μl of NIM-DAPI. Samples were immediately read and analyzed through flow cytometry (Gallios & Kaluza Analysis Software; Beckman Coulter). Approximately 10,000 events were acquired per sample. Data are represented as plots that display peaks (Fig. 6e) which represent fragments of DNA (Sub-G0/1 phase), cells before they replicate DNA (G0/1 phase), active replication of DNA (S phase), and post-replicative stage while entering mitosis (G2M phase) [23].

[28] = tested on: PMAIP1 in HL-60 cells; test: RT-qPCR gene expression; conditions: HL-60, 6 h, P3 […], P4 4 μM, P5 4 μM, normalised to ACTB, 2^−ΔΔCt
Method: (§10) After the incubation period elapsed, cell pellets were washed by centrifuging at 262g for 5 min and re-suspending in 1 ml of PBS. Dry cell pellets were used for RNA extraction. RNA was extracted immediately according to the manufacturer’s instructions of the RNeasy Mini Kit (Qiagen; 74104). A QIAshredder was used to lyse the cells, and the optional DNase I digestion was also accomplished. Three biological replicates were used for each treatment. RNA was stored at −80 °C overnight, then the RNA was used to synthesize cDNA using the RT^2 HT First Strand Kit (Qiagen; 330,411). The amount of RNA used per sample was 500 ng, which was quantified using a NanoDrop ND-1000 system (ThermoFisher Scientific). RNA was diluted using RNase-free water to obtain the desired concentration (500 ng) in 9 μl. As per the manufacturer’s protocol, we incubated 9 μl of the sample with 6 μl GE2 (gDNA elimination buffer) for 5 min at 37 °C, then we added 6 μl BC4 Reverse Transcriptase Mix and incubated for 15 min at 42 °C, 5 min at 95 °C and, finally, a 4 °C hold. […] For data analysis, gene expression levels were normalized to the housekeeping gene (ACTB) and quantified using the comparative Ct method (2^−ΔΔCt). Fold change differences were calculated by comparing gene expression levels of compound treatment versus vehicle control.

[29] = tested on: ATF3 in HL-60 cells; test: RT-qPCR gene expression; conditions: HL-60, 6 h, P3 […], P4 4 μM, P5 4 μM, normalised to ACTB, 2^−ΔΔCt
Method: as §10

[30] = tested on: CHAC1 in HL-60 cells; test: RT-qPCR gene expression; conditions: HL-60, 6 h, P3 […], P4 4 μM, P5 4 μM, normalised to ACTB, 2^−ΔΔCt
Method: as §10

[31] = tested on: MYC in HL-60 cells; test: RT-qPCR gene expression; conditions: HL-60, 6 h, P3 […], P4 4 μM, P5 4 μM, normalised to ACTB, 2^−ΔΔCt
Method: as §10

[32] = tested on: HMOX-1 in HL-60 cells; test: RT-qPCR gene expression; conditions: HL-60, 6 h, P3 […], P4 4 μM, P5 4 μM, normalised to ACTB, 2^−ΔΔCt, two independent experiments
Method: as §10

[33] = HL-60, concentration used for 72 h cell cycle analysis

N[C@@H](Cc1ccc(N(CCCl)CCCl)cc1)C(=O)O [Melphalan, reference compound]
CC50 [1]: 3.17 µM | CC50 [2]: 20.4 µM | CC50 ([3]; HL-60, 48 h): 1.57 µM | CC50 [4]: 21.1 µM | CC50 [5]: 1.91 µM | CC50 [6]: 19.6 µM | CC50 ([7]; KCL-22, 48 h): 81.3 µM | CC50 [8]: 9.23 µM | CC50 [9]: 2.05 µM | CC50 [10]: 17.8 µM

O=C1/C(=C/c2ccc(O)c(CN3CCOCC3)c2)CNC/C1=C\c1ccc(O)c(CN2CCOCC2)c1 [P5]
selectivity ratio at 48 h [11]: 8.42 | CC50 ([1]; DNS assay, read-out: CC50): 0.65 µM | selectivity ratio at 48 h [12]: 6.87 | CC50 ([2]; DNS assay, read-out: CC50): 0.8 µM | selectivity ratio at 48 h [13]: 7.47 | CC10 [3, 33]: 0.4 µM | CC30 [3, 33]: 1.2 µM | CC50 ([3]; HL-60, 48 h, DNS assay, read-out: CC50): 0.74 µM | CC50 ([3]; HL-60, value used to set treatment concentrations, read-out: CC50 in HL-60 (concentrations for cell death induction)): 2 µM | CC50 at 48 h [14]: 5.5 µM | selectivity ratio at 48 h [15]: 2.85 | CC50 ([4]; DNS assay, read-out: CC50): 1.93 µM | selectivity ratio at 48 h [16]: 6.05 | CC50 ([5]; DNS assay, read-out: CC50): 0.91 µM | selectivity ratio at 48 h [17]: 1.29 | CC50 ([6]; DNS assay, read-out: CC50): 4.25 µM | selectivity ratio at 48 h [18]: 3.49 | CC50 ([7]; KCL-22, KCL22, 48 h, DNS assay, read-out: CC50): 1.57 µM | CC50 at 48 h [19]: 2.18 µM | selectivity ratio at 48 h [20]: 1.26 | CC50 ([8]; DNS assay, read-out: CC50): 1.74 µM | selectivity ratio at 48 h [21]: 5.19 | CC50 ([9]; DNS assay, read-out: CC50): 1.06 µM | CC50 ([10]; DNS assay, mean over nine cell lines): 1.52 µM | times more potent than melphalan ([10]; ratio of average CC50 values, nine tumorigenic cell lines): 11.7 | CC50 at 48 h [22]: 3.84 µM | increase of Annexin V-FITC-positive cells in comparison to DMSO [23]: ~ 30% | cells with active caspase-3, as compared to DMSO [24]: ~ 49% | increase in the cell population with a depolarized mitochondrial membrane in comparison to DMSO [25]: ~ 10% | increase of cells positive for ROS production compared to DMSO ([26]; P3 […], P4 2 μM, P5 2 μM): ~ 38% | increase of cells positive for ROS production compared to DMSO ([26]; twice the concentration (P3 […], P4 4 μM, P5 4 μM)): ~ 65% | increase in the percentage of cells arrested at the G2/M phase versus DMSO ([27]; 0.4 μM): ~ 9% | change in the percentage of cells in the S phase compared to DMSO ([27]; printed as double the CC50 concentration): significant decrease | fold-change difference of PMAIP1 expression versus vehicle [28]: 79.50 | fold-change difference of ATF3 expression versus vehicle [29]: 204.56 | fold-change difference of CHAC1 expression versus vehicle [30]: 106.96 | fold-change difference of MYC expression versus vehicle [31]: −4.15 | fold-change difference of HMOX-1 expression versus vehicle [32]: 2464.89

From article PMC8786778 (Pharmacological reports : PR, 2021)
